From patent publication US20140243292A1, “SUBSITUTED 2-(CHROMAN-6-YLOXYL)-THIAZOLES AND THEIR USE AS PHARMACEUTICALS” (Sanofi, priority 2011, published 2014)
Counter-ions that a name gives are not always drawn.

Target: T1, human NCX1 (Homo sapiens, UniProt P32418)
T1 construct: expressed in transfected cells
Assay: NCX1 inhibition, reverse mode (Ca2+ influx into cells), FLIPR Fluo-4 assay
Type: cell-based
Details: inhibition of NCX1 in reverse mode (Ca2+ influx into cells); read-out: NCX1rv IC50
Text: The sodium/calcium exchanger NCX1 can transport calcium ions and sodium ions through the cell membrane. The transport is an exchange of Ca^2+ and Na^+ in two directions depending on membrane potential and ion gradients. At the first direction, named “forward mode” or “calcium export mode”, Ca^2+ is transported out of the cell and Na^+ is transported into the cell. At the other direction, named “reverse mode” or “calcium import mode”, the transport directions are vice versa. The effect of the compounds of the invention on NCX1 was determined in CHO cells stably expressing human NCX1 (gene symbol SLC8A1; cf. WO 2009/115238). The assay is based on the monitoring of intracellular Ca^2+ concentrations using a calcium-sensitive fluorescence dye which is detected by means of a FLIPR device (Fluorimetric Imaging Plate Reader, Molecular Devices).
The assay is based on the monitoring of intracellular Ca^2+ concentrations using the calcium-sensitive dye Fluo-4. CHO cells expressing NCX1 were loaded with the dye by means of the acetoxymethyl ester Fluo-4 AM (Invitrogen, F14202), which is cleaved intracellularly by esterase activity to yield the charged species of free Fluo-4. After an preincubation period with the test compound, Gramicidine (Sigma, G5002) was added. Gramicidine is an ionophor for Na^+ ions mediating an increase of intracellular Na^+ ions. Consequently, intracellular Na^+ ions are exchanged against extracellular Ca^2+ ions (Ca^2+ influx, reverse mode). The intracellular elevation of Ca^2+ ions was detected by measuring the fluorescence of Fluo-4 at a wavelength of 520 nm by a FLIPR device.
Briefly, for the reverse mode transport assay 18000 cells per well were seeded into a 96 well microplate (Corning COSTAR 3904) and incubated overnight in culture medium (1× Nut Mix F12 (Ham) (Gibco, 21765-029); 10% (v/v) fetal calf serum (PAA Gold, A15-649); 450 μg/ml Geneticin (Gibco, 10131-027)). A total volume of 100 μl medium per well was used. For the preparation of the FLIPR assay, the culture medium was removed from the plates and 100 μl of dye solution (2 μM Fluo-4 AM; 0.02% (v/v) Pluronic F-127 (20%, Invitrogen, P3000MP); 0.1% (v/v) bovine albumin solution (30% (v/v), Sigma, A9205) in assay buffer (133.8 mM NaCl (Sigma, S5886); 4.7 mM KCl (Sigma, P3911); 1.25 mM MgCl2 (Merck, 1.05833.0250); 3.5 mM CaCl2 (Merck, 1.02083.0250); 5 mM glucose (Sigma, G7021); 10 mM Hepes (Sigma, H4034); 0.01% (v/v) Pluronic F-127 (5%, Sigma, P2443); 2.5 mM Probenecid (Maybridge, SB00915EB); pH 7.4)) were added into each well. The plates were incubated in the dark at room temperature for 80 min. After the incubation period, the dye solution was removed and the wells were washed with 100 μl of assay buffer. Then 80 μl of a solution of the test compound in assay buffer in different concentrations were added into the wells. The plates were incubated at 16° C. for 45 min. Meanwhile a 60 μM solution of Gramicidine in assay buffer (4° C.) was prepared and stored in the wells of a 96 well microplate (96 well microplate, polypropylene, U-shape (Greiner Bio-One, 650201)) at 4° C. until measurement was started. The fluorescence monitoring was performed at 240 measuring points with measurement intervals of 2 sec. After the fifth measuring point, 40 μl of the Gramicidine solution were added to each well of the assay plates to give a final Gramicidine concentration of 20 μM. For the determination of the IC50 values the minimal fluorescence value was subtracted from the maximal fluorescence value for all measuring points. The calculation of the IC50 values via the percentage inhibitions of Ca^2+ influx into cells (reverse mode) effected by the test compound was performed in Biost@t Speed 2.0.

Going from “2-((S)-2-Phenyl-chroman-6-yloxy)-thiazole-5-carboxylic acid (3-amino-propyl)-amide [compound 289]” to “2-[2-(2,6-Dimethyl-phenyl)-chroman-6-yloxy]-thiazole-5-carboxylic acid [2-(2-oxo-imidazolidin-1-yl)-ethyl]-amide [compound 347]”, the IC50 rises from 300 nM to 1500 nM (5-fold). The first is the more potent here.

`CCn1cc(CNC(=O)c2cnc(Oc3ccc4c(c3)CCC(c3ccccc3)O4)s2)cn1` (stereo not shown) [compound 1] and `CCn1nccc1CNC(=O)c1cnc(Oc2ccc3c(c2)CCC(c2ccccc2)O3)s1` (stereo not shown) [compound 3] are within 1.5-fold of each other in IC50: 300 nM for the first, 400 nM for the second.

`O=C(NCc1ccncc1)c1cnc(Oc2ccc3c(c2)CCC(c2ccccc2)O3)s1` (stereo not shown) [compound 4] and `Cn1nccc1CNC(=O)c1cnc(Oc2ccc3c(c2)CCC(c2ccccc2)O3)s1` (stereo not shown) [compound 5] are within 1.5-fold of each other in IC50: 300 nM for the first, 400 nM for the second.

`CC(NC(=O)c1cnc(Oc2ccc3c(c2)CCC(c2ccccc2)O3)s1)c1ccncc1` (stereo not shown) [compound 6] and `Cc1ncsc1CCNC(=O)c1cnc(Oc2ccc3c(c2)CCC(c2ccccc2)O3)s1` (stereo not shown) [compound 7] are within 1.5-fold of each other in IC50: 400 nM for the first, 300 nM for the second.

`Cc1c(C(C)NC(=O)c2cnc(Oc3ccc4c(c3)CCC(c3ccccc3)O4)s2)cnn1C` (stereo not shown) [compound 8] and `Cc1cc(CNC(=O)c2cnc(Oc3ccc4c(c3)CCC(c3ccccc3)O4)s2)ccn1` (stereo not shown) [compound 9] are the same in IC50: 800 nM for the first, 800 nM for the second.

First: COc1cc(CNC(=O)c2cnc(Oc3ccc4c(c3)CCC(c3ccccc3)O4)s2)ccn1 (stereo not shown) [compound 10]
Second: Nc1cc(CNC(=O)c2cnc(Oc3ccc4c(c3)CCC(c3ccccc3)O4)s2)ccn1 (stereo not shown) [compound 11]
The IC50 of the first is 1.5-fold higher: 600 nM for the first, 400 nM for the second. The second is the more potent here.

First: Nc1cc(CNC(=O)c2cnc(Oc3ccc4c(c3)CCC(c3cccc(F)c3)O4)s2)ccn1 (stereo not shown) [compound 12]
Second: O=C(NCc1cnc(Oc2ccc3c(c2)CCC(c2ccccc2)O3)s1)c1cccnc1 (stereo not shown) [compound 15, hydrochloride]
The IC50 of the first is 2-fold higher: 200 nM for the first, 100 nM for the second. The second is the more potent here.

Compared with `O=C(Cc1cccnc1)NCc1cnc(Oc2ccc3c(c2)CCC(c2ccccc2)O3)s1` (stereo not shown) [compound 16, hydrochloride], `O=C(NCc1nnc2ccccn12)c1cnc(Oc2ccc3c(c2)CCC(c2cccc(F)c2)O3)s1` (stereo not shown) [compound 17, hydrochloride] is 2-fold higher in IC50: 100 nM for the first, 200 nM for the second. The first is the more potent here.

`O=C(Cc1ccccn1)NCc1cnc(Oc2ccc3c(c2)CCC(c2ccccc2)O3)s1` (stereo not shown) [compound 19, hydrochloride] and `Cc1nccc(CNC(=O)c2cnc(Oc3ccc4c(c3)CCC(c3ccccc3)O4)s2)n1` (stereo not shown) [compound 21] are the same in IC50: 100 nM for the first, 100 nM for the second.

Compared with `CC[C@H](NC(=O)c1cnc(Oc2ccc3c(c2)CCC(c2ccccc2)O3)s1)c1ccc(OC)nc1` (stereo partly shown) [compound 22], `Cc1nn(C)cc1C(C)NC(=O)c1cnc(Oc2ccc3c(c2)CCC(c2ccccc2)O3)s1` (stereo not shown) [compound 23] is 2-fold higher in IC50: 400 nM for the first, 800 nM for the second.

First: O=C(NCc1ccno1)c1cnc(Oc2ccc3c(c2)CCC(c2ccccc2)O3)s1 (stereo not shown) [compound 24]
Second: O=C(NCc1ccnc(N2CCCC2)c1)c1cnc(Oc2ccc3c(c2)CCC(c2ccccc2)O3)s1 (stereo not shown) [compound 25]
The IC50 of the first is 4-fold lower: 100 nM for the first, 400 nM for the second.

`CN(Cc1ccnc(N2CCCC2)c1)C(=O)c1cnc(Oc2ccc3c(c2)CCC(c2ccccc2)O3)s1` (stereo not shown) [compound 26] and `CC[C@@H](NC(=O)c1cnc(Oc2ccc3c(c2)CCC(c2ccccc2)O3)s1)c1ccc(OC)nc1` (stereo partly shown) [compound 27] are the same in IC50: 300 nM for the first, 300 nM for the second.

Going from `O=C(NCc1ccnc(N2CCOCC2)c1)c1cnc(Oc2ccc3c(c2)CCC(c2ccccc2)O3)s1` (stereo not shown) [compound 28] to `CN(C)c1cc(CNC(=O)c2cnc(Oc3ccc4c(c3)CCC(c3ccccc3)O4)s2)ccn1` (stereo not shown) [compound 29], the IC50 falls from 200 nM to 100 nM (2-fold). The second is the more potent here.

Compared with `O=C(NCc1ccncc1)c1sc(Oc2ccc3c(c2)CCC(c2ccccc2)O3)nc1C(F)(F)F` (stereo not shown) [compound 30, hydrochloride], `Cc1n[nH]c(C)c1C(C)NC(=O)c1cnc(Oc2ccc3c(c2)CCC(c2ccccc2)O3)s1` (stereo not shown) [compound 31] is 3.3-fold higher in IC50: 300 nM for the first, 1000 nM for the second. The first is the more potent here.

`Cc1cc(C)nc(CNC(=O)c2cnc(Oc3ccc4c(c3)CCC(c3ccccc3)O4)s2)n1` (stereo not shown) [compound 33] and `Cc1noc(C)c1CCNC(=O)c1cnc(Oc2ccc3c(c2)CCC(c2ccccc2)O3)s1` (stereo not shown) [compound 34] are the same in IC50: 200 nM for the first, 200 nM for the second.

Going from `O=C(NCc1nnc2ccccn12)c1cnc(Oc2ccc3c(c2)CCC(c2ccccc2)O3)s1` (stereo not shown) [compound 35] to `O=C(NCc1ccncc1)c1cnc(Oc2ccc3c(c2)CC[C@@H](c2ccccc2)O3)s1` [compound 36], the IC50 falls from 600 nM to 100 nM (6-fold).

Compared with `O=C(NCc1ccncc1)c1cnc(Oc2ccc3c(c2)CC[C@H](c2ccccc2)O3)s1` [compound 37], `Cc1noc(C)c1CCCNC(=O)c1cnc(Oc2ccc3c(c2)CCC(c2ccccc2)O3)s1` (stereo not shown) [compound 38] is 1.5-fold higher in IC50: 200 nM for the first, 300 nM for the second. The first is the more potent here.

Going from `O=C(NCc1ccncc1Cl)c1cnc(Oc2ccc3c(c2)CCC(c2ccccc2)O3)s1` (stereo not shown) [compound 40] to `O=C(NCc1cn2ccccc2n1)c1cnc(Oc2ccc3c(c2)CCC(c2ccccc2)O3)s1` (stereo not shown) [compound 41], the IC50 rises from 400 nM to 5000 nM (12-fold). The first is the more potent here.

Compared with `O=C(NCc1ccnc(O)c1)c1cnc(Oc2ccc3c(c2)CCC(c2ccccc2)O3)s1` (stereo not shown) [compound 42], `O=C(Cc1ccncc1)NCc1cnc(Oc2ccc3c(c2)CCC(c2ccccc2)O3)s1` (stereo not shown) [compound 43, hydrochloride] is 1.5-fold higher in IC50: 200 nM for the first, 300 nM for the second. The first is the more potent here.

First: O=C(NCc1cnc(Oc2ccc3c(c2)CCC(c2cccc(F)c2)O3)s1)c1cccnc1 (stereo not shown) [compound 44, hydrochloride]
Second: O=C(Cc1cccnc1)NCc1cnc(Oc2ccc3c(c2)CCC(c2cccc(F)c2)O3)s1 (stereo not shown) [compound 45, hydrochloride]
The IC50 of the first is 2-fold higher: 200 nM for the first, 100 nM for the second. The second is the more potent here.

Going from `O=C(Cc1ccncc1)NCc1cnc(Oc2ccc3c(c2)CCC(c2cccc(F)c2)O3)s1` (stereo not shown) [compound 46, hydrochloride] to `O=S(=O)(NCc1cnc(Oc2ccc3c(c2)CCC(c2ccccc2)O3)s1)c1cccnc1` (stereo not shown) [compound 47, hydrochloride], the IC50 falls from 200 nM to 100 nM (2-fold).

`O=C(NCc1cnc(Oc2ccc3c(c2)CCC(c2ccccc2)O3)s1)c1ccno1` (stereo not shown) [compound 48] and `O=C(NCc1ccno1)c1cnc(Oc2ccc3c(c2)CCC(c2cccc(F)c2)O3)s1` (stereo not shown) [compound 49] are the same in IC50: 100 nM for the first, 100 nM for the second.

`Cn1cnc(S(=O)(=O)NCc2cnc(Oc3ccc4c(c3)CCC(c3ccccc3)O4)s2)c1` (stereo not shown) [compound 50, 1-Methyl-1H-imidazole-4-sulfonic acid [2-(2-phenyl-chroman-6-yloxy)-thiazol-5-ylmethyl]-amide hydrochloride] and `Cc1c(CNC(=O)c2cnc(Oc3ccc4c(c3)CCC(c3cccc(F)c3)O4)s2)cnn1C` (stereo not shown) [compound 51] are the same in IC50: 200 nM for the first, 200 nM for the second.

First: C[C@H](NC(=O)c1cnc(Oc2ccc3c(c2)CCC(c2ccccc2)O3)s1)c1nc(C2CC2)cs1 (stereo partly shown) [compound 52]
Second: CC(C)c1csc([C@H](C)NC(=O)c2cnc(Oc3ccc4c(c3)CCC(c3ccccc3)O4)s2)n1 (stereo partly shown) [compound 53]
The IC50 of the first is 1.8-fold lower: 400 nM for the first, 700 nM for the second.

First: C[C@H](NC(=O)c1cnc(Oc2ccc3c(c2)CCC(c2ccccc2)O3)s1)c1nccs1 (stereo partly shown) [compound 54]
Second: O=C(NCc1ccncc1)c1cnc(Oc2ccc3c(c2Cl)CCC(c2ccccc2)O3)s1 (stereo not shown) [compound 55, hydrochloride]
The IC50 of the first is 6-fold lower: 200 nM for the first, 1200 nM for the second.

First: Cc1nccc(CNC(=O)c2cnc(Oc3ccc4c(c3)CCC(c3cccc(F)c3)O4)s2)n1 (stereo not shown) [compound 56, hydrochloride]
Second: NCc1cnc(Oc2ccc3c(c2)CCC(c2ccccc2)O3)s1 (stereo not shown) [compound 57, C-[2-(2-Phenyl-chroman-6-yloxy)-thiazol-5-yl]-methylamine]
The IC50 of the first is 2-fold higher: 200 nM for the first, 100 nM for the second.
